Measured values as given in ChEMBL document CHEMBL1201862, “PubChem BioAssay data set” (2004).
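Compound exposure: 48 hours, 5 concentrations, 96-well plates. Here, GI50 denotes the concentration required for 50% inhibition of growth.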 Activity calls are given as the source filed them. Cut-off read from the data, not from the text of the source: active = GI50 up to about 1.1 µM and inactive = higher.

Key:
Experiment in all cases: DTP human tumour cell line panel, 48 h
SNB-75 = test system: SNB-75
RPMI-8226 = test system: RPMI-8226
SN12C = test system: SN12C
HT-29 = test system: HT-29
NCI/ADR-RES = test system: NCI/ADR-RES
U-251 = test system: U-251
HCT-15 = test system: HCT-15
KM12 = test system: KM12
CAKI-1 = test system: CAKI-1
RXF 393 = test system: RXF 393
BT-549 = test system: BT-549
SF-539 = test system: SF-539
NCI-H226 = test system: NCI-H226
UO-31 = test system: UO-31
NCI-H460 = test system: NCI-H460
NCI-H23 = test system: NCI-H23
TK-10 = test system: TK-10
SK-OV-3 = test system: SK-OV-3
UACC-62 = test system: UACC-62
M14 = test system: M14

| Compound | GI50 (SNB-75) | GI50 (RPMI-8226) | GI50 (SN12C) | GI50 (HT-29) | GI50 (NCI/ADR-RES) | GI50 (U-251) | GI50 (HCT-15) [µM] | GI50 (KM12) | GI50 (CAKI-1) | GI50 (RXF 393) | GI50 (BT-549) | GI50 (SF-539) | GI50 (NCI-H226) | GI50 (UO-31) | GI50 (NCI-H460) | GI50 (NCI-H23) | GI50 (TK-10) | GI50 (SK-OV-3) | GI50 (UACC-62) | GI50 (M14) |
| --- | --- | --- | --- | --- | --- | --- | --- | --- | --- | --- | --- | --- | --- | --- | --- | --- | --- | --- | --- | --- |
| COC1(OC)CC(CO)(CNc2nc(N)nc(Cl)c2/C=N\O)C1 | 48.8 µM (inactive) | 13.6 µM (inactive) | 87.7 µM (inactive) | 38.4 µM (inactive) | 46 µM (inactive) | 43.7 µM (inactive) | 75.5 | 7.05 µM (inactive) | 57.4 µM (inactive) | 18.7 µM (inactive) | 25.3 µM (inactive) | 38.8 µM (inactive) | 29.6 µM (inactive) | 39.2 µM (inactive) | 37.4 µM (inactive) | 9.77 µM (inactive) | 25.9 µM (inactive) |  |  |  |
| O=C(CSC1=NC(=O)C2(NN1)c1ccccc1-c1ccccc12)NC(=S)Nc1ccccc1 | > 10 µM (inactive) | 9.04 µM (inactive) | > 10 µM (inactive) | > 10 µM (inactive) | 7.76 µM (inactive) |  | > 10 | > 10 µM (inactive) | > 10 µM (inactive) | > 10 µM (inactive) | > 10 µM (inactive) | > 10 µM (inactive) | 8.2 µM (inactive) | 4.7 µM (inactive) | > 10 µM (inactive) | > 10 µM (inactive) | > 10 µM (inactive) | > 10 µM (inactive) | > 10 µM (inactive) | > 10 µM (inactive) |
| CC1=NNC(=O)C1C1C=C(c2c[nH]c3ccccc23)OC1=O (centres undefined) | > 100 µM (inactive) | 39.8 µM (inactive) | > 100 µM (inactive) | > 100 µM (inactive) | > 100 µM (inactive) | > 100 µM (inactive) | > 100 | 21.7 µM (inactive) | > 100 µM (inactive) | > 100 µM (inactive) | > 100 µM (inactive) | > 100 µM (inactive) | > 100 µM (inactive) | > 100 µM (inactive) | > 100 µM (inactive) | > 100 µM (inactive) | > 100 µM (inactive) | > 100 µM (inactive) | > 100 µM (inactive) | > 100 µM (inactive) |
| COc1cccc(OCC(=N/NC(=O)c2ccncc2)/N=C/c2cccnc2)c1 | > 100 µM (inactive) | 68.2 µM (inactive) |  | > 100 µM (inactive) | > 100 µM (inactive) | > 100 µM (inactive) | > 100 | > 100 µM (inactive) | > 100 µM (inactive) | > 100 µM (inactive) | > 100 µM (inactive) | > 100 µM (inactive) | > 100 µM (inactive) |  | > 100 µM (inactive) | > 100 µM (inactive) | > 100 µM (inactive) | > 100 µM (inactive) | > 100 µM (inactive) | > 100 µM (inactive) |
| O=C(N/N=C\c1cccc2c([N+](=O)[O-])cccc12)Nc1ccccc1 | 22.3 µM (inactive) | 14.7 µM (inactive) | 4.59 µM (inactive) | 14.8 µM (inactive) | 12.4 µM (inactive) | 7.08 µM (inactive) | 11.2 | 14.9 µM (inactive) | 12.5 µM (inactive) | 7.53 µM (inactive) | 8.95 µM (inactive) | 11.5 µM (inactive) | 13.6 µM (inactive) | 13.2 µM (inactive) | 14.2 µM (inactive) | 15.8 µM (inactive) | 11.7 µM (inactive) |  | 10.4 µM (inactive) | 12.9 µM (inactive) |
| OCCOCn1nncc1Cn1ncc2c(O)ncnc21 | > 100 µM (inactive) |  | > 100 µM (inactive) | 40 µM (inactive) | > 100 µM (inactive) | > 100 µM (inactive) | > 100 | 32.6 µM (inactive) | > 100 µM (inactive) | > 100 µM (inactive) | > 100 µM (inactive) | > 100 µM (inactive) | > 100 µM (inactive) | > 100 µM (inactive) | 49.4 µM (inactive) | > 100 µM (inactive) | > 100 µM (inactive) | 71.6 µM (inactive) | > 100 µM (inactive) | > 100 µM (inactive) |
| C[C@]12C(=O)OC[C@H](c3ccccc3)N1C(=O)N(Cc1ccccc1)[C@@H]2CO | 45.6 µM (inactive) |  | > 100 µM (inactive) | > 100 µM (inactive) | > 100 µM (inactive) |  | > 100 | > 100 µM (inactive) | > 100 µM (inactive) | > 100 µM (inactive) | > 100 µM (inactive) | > 100 µM (inactive) | > 100 µM (inactive) | > 100 µM (inactive) | > 100 µM (inactive) |  | > 100 µM (inactive) | > 100 µM (inactive) | > 100 µM (inactive) | > 100 µM (inactive) |
| Nc1ncnc2ccc(Sc3ccc4ncnc(N)c4c3)cc12 | > 100 µM (inactive) | > 100 µM (inactive) | > 100 µM (inactive) | > 100 µM (inactive) | > 100 µM (inactive) | > 100 µM (inactive) | > 100 | > 100 µM (inactive) | > 100 µM (inactive) | > 100 µM (inactive) | > 100 µM (inactive) | > 100 µM (inactive) | > 100 µM (inactive) | > 100 µM (inactive) | > 100 µM (inactive) |  | > 100 µM (inactive) | > 100 µM (inactive) | > 100 µM (inactive) | > 100 µM (inactive) |
| COc1ccc2c(O)c(S(=O)(=O)c3ccc(C)cc3)c(=O)oc2c1OC | > 100 µM (inactive) | > 100 µM (inactive) | > 100 µM (inactive) | > 100 µM (inactive) | > 100 µM (inactive) | > 100 µM (inactive) | > 100 | > 100 µM (inactive) | > 100 µM (inactive) | > 100 µM (inactive) | > 100 µM (inactive) | > 100 µM (inactive) | > 100 µM (inactive) | > 100 µM (inactive) | > 100 µM (inactive) | > 100 µM (inactive) | > 100 µM (inactive) | > 100 µM (inactive) | > 100 µM (inactive) | > 100 µM (inactive) |
| COC(=O)C1=COc2c(n(C)c3ccccc23)-c2ccccc21 | 27.6 µM (inactive) | 97.3 µM (inactive) | > 100 µM (inactive) | > 100 µM (inactive) | > 100 µM (inactive) | > 100 µM (inactive) | > 100 | > 100 µM (inactive) | > 100 µM (inactive) | > 100 µM (inactive) | > 100 µM (inactive) | 81.1 µM (inactive) | > 100 µM (inactive) | > 100 µM (inactive) | > 100 µM (inactive) | > 100 µM (inactive) | > 100 µM (inactive) | > 100 µM (inactive) | > 100 µM (inactive) | > 100 µM (inactive) |
| COC(=O)c1cccc(COc2ccc([N+](=O)[O-])cc2Cl)c1 | > 100 µM (inactive) | 89.7 µM (inactive) | 49 µM (inactive) | > 100 µM (inactive) | > 100 µM (inactive) | 83.2 µM (inactive) | 70.5 | > 100 µM (inactive) | 56 µM (inactive) | > 100 µM (inactive) | > 100 µM (inactive) | > 100 µM (inactive) | 43.2 µM (inactive) | 98.9 µM (inactive) | > 100 µM (inactive) | > 100 µM (inactive) | > 100 µM (inactive) | > 100 µM (inactive) | 43.4 µM (inactive) | > 100 µM (inactive) |
| CC1(C)CCCC2(C)C3=C(CCC12)C(=O)OC3 (centres undefined) | > 100 µM (inactive) | 19.6 µM (inactive) | > 100 µM (inactive) | 66.7 µM (inactive) | 86.3 µM (inactive) | > 100 µM (inactive) | 87.9 | > 100 µM (inactive) | 53.6 µM (inactive) | 62.2 µM (inactive) | 80.5 µM (inactive) | > 100 µM (inactive) | > 100 µM (inactive) | 38.9 µM (inactive) |  | > 100 µM (inactive) | > 100 µM (inactive) | > 100 µM (inactive) | 93.5 µM (inactive) | > 100 µM (inactive) |
| Cc1c(C)c(C)c(-n2c(=O)n(C)c(=O)n2-n2c(=O)n(C)c(=O)n2-c2c(C)c(C)c(C)c(C)c2C)c(C)c1C | > 100 µM (inactive) | > 100 µM (inactive) | > 100 µM (inactive) | > 100 µM (inactive) | 61.2 µM (inactive) | > 100 µM (inactive) | > 100 | > 100 µM (inactive) | > 100 µM (inactive) | > 100 µM (inactive) | > 100 µM (inactive) | > 100 µM (inactive) | 37.8 µM (inactive) | > 100 µM (inactive) | > 100 µM (inactive) |  | > 100 µM (inactive) | > 100 µM (inactive) | > 100 µM (inactive) | > 100 µM (inactive) |
| O=S(=O)(O)c1ccc2cc(/N=N/c3c(O)ccc4ccccc34)ccc2c1 | > 100 µM (inactive) |  | > 100 µM (inactive) | > 100 µM (inactive) | > 100 µM (inactive) | > 100 µM (inactive) | > 100 | 97.5 µM (inactive) | > 100 µM (inactive) | > 100 µM (inactive) | > 100 µM (inactive) | > 100 µM (inactive) | > 100 µM (inactive) | > 100 µM (inactive) | > 100 µM (inactive) | > 100 µM (inactive) | > 100 µM (inactive) | > 100 µM (inactive) | > 100 µM (inactive) | > 100 µM (inactive) |
| CSc1ccc2c(c1)N(CCCN(C)C)c1ccccc1S2 | 6.97 µM (inactive) | 12.2 µM (inactive) | 13.1 µM (inactive) | 6.78 µM (inactive) | 12.1 µM (inactive) | 13.5 µM (inactive) | 15 | 11.8 µM (inactive) | 8.67 µM (inactive) | 7.55 µM (inactive) | 15.4 µM (inactive) | 17.3 µM (inactive) | 19.8 µM (inactive) |  | 10.8 µM (inactive) | 16.4 µM (inactive) | 14.9 µM (inactive) | 15.1 µM (inactive) | 10.4 µM (inactive) | 5.19 µM (inactive) |
